pEC50: −log10 of the molar value. In brackets after ≈: the same amount, converted by molar mass. Where a name gives a salt, the structure may show the parent alone.
What was measured:
[1] = Cytotoxicity (MTT / CellTiter-Glo cell viability) in Vero-E6 cells; assay type: cell-based, African green monkey; conditions: African green monkey, Vero-E6 cells, at MNCC, 48 h exposure, normalized to untreated control; mean 2x
Text: (§1) An 80% viability threshold was established for selecting the compounds for further analysis.

[2] = Cytotoxicity (MTT / CellTiter-Glo cell viability) in Calu-3 cells; assay type: cell-based, human; conditions: human, Calu-3 cells, at MNCC, 48 h exposure, normalized to untreated control; mean 2x
Text: as §1

Vero-E6 and Calu-3 cells = test: Maximum non-cytotoxic concentration (MNCC) determination; assay type: cell-based; conditions: 48 h
Text: as §1

Vero-E6 cells = test: Cytotoxicity (MTT / CellTiter-Glo cell viability) in Vero-E6 cells; assay type: cell-based, African green monkey; conditions: at MNCC, 48 h exposure, normalized to untreated control, mean 2x
Text: as §1

Calu-3 cells = test: Cytotoxicity (MTT / CellTiter-Glo cell viability) in Calu-3 cells; assay type: cell-based, human; conditions: at MNCC, 48 h exposure, normalized to untreated control, mean 2x
Text: as §1

[3] = doses commonly administered in human treatments; ref Byakika-Kibwika et al., 2012 (ASi); Nicol et al., 2020 (CQ, HCQ); Gonzalez Canga et al., 2008 (IVM); Bhatia et al., 1986 (PQ); cited from earlier work
[4] = CC50 determination in Vero E6 cells; conditions: African green monkey
Text: (§2) DMSO was used as a negative control. To calculate the IC50 and CC50, a 4-parameter nonlinear regression sigmoidal concentration-response function was undertaken using the Prism 10 software package (GraphPad, Boston, MA, USA).

SARS-CoV-2 = tested on: SARS-CoV-2; set-up: method as in Gendrot et al., 2020c; conditions: other studies; ref Gendrot et al., 2020c; cited from earlier work
Vero E6 cells = test: CC50 determination in Vero E6 cells; conditions: Vero E6
Text: as §2

[5] = CC50 (Figure 4 curve), Vero-E6, sigmoidal 4PL fit

| Molecule | viability at 48 h [1] [%] | viability at 48 h [2] [%] | MNCC Concentration (Vero-E6 and Calu-3 cells) [µM] | % viability Vero E6 (Vero-E6 cells) [%] | % viability Calu-3 (Calu-3 cells) [%] | also measured |
| --- | --- | --- | --- | --- | --- | --- |
| CCN(CC)Cc1cc(Nc2ccnc3cc(Cl)ccc23)ccc1O [Amodiaquine (AQ), Amodiaquine] | 84 | 82 | 20 | – | – | – |
| CCO[C@H]1O[C@@H]2O[C@@]3(C)CC[C@H]4[C@H](C)CC[C@@H]([C@H]1C)[C@@]24OO3 [Arteether (AE), Arteether] | 104 | 97 | 125 | – | – | – |
| C[C@H]1[C@@H](OCc2ccc(C(=O)O)cc2)O[C@@H]2O[C@@]3(C)CC[C@H]4[C@H](C)CC[C@@H]1[C@@]24OO3 [Artelinic Acid (AA), Artelinic Acid] | – | – | 30 | 100 | 92 | – |
| C[C@H]1[C@H](N2CCS(=O)(=O)CC2)O[C@@H]2O[C@@]3(C)CC[C@H]4[C@H](C)CC[C@@H]1[C@@]24OO3 [Artemisone (ASO), Artemisone] | 92 | 93 | 125 | – | – | – |
| C[C@H]1[C@H](OC(=O)CCC(=O)O)O[C@@H]2O[C@@]3(C)CC[C@H]4[C@H](C)CC[C@@H]1[C@@]24OO3 [Artesunate injection (ASi), Artesunate] | – | – | 50 | 81 | 82 | MNCC Concentration (Vero-E6 and Calu-3 cells; listed as ASi): 50 µM; Cmax (maximum plasma concentration) [3]: 3.30 µg/mL; CC50 at 72 h ([4]; CC50% in µg/mL, Vero E6): 27 µg/mL; CC50 at 72 h ([4]; CC50%, Vero E6): 70.3 µM |
| C[C@H]1[C@H](OC(=O)CCC(=O)O)O[C@@H]2O[C@@]3(C)CC[C@H]4[C@H](C)CC[C@@H]1[C@@]24OO3 [Artesunic acid (AS), Artesunic acid] | < 80 | < 80 | 125 | 74 | 74 | – |
| CC[C@H]1OC(=O)[C@H](C)[C@@H](O[C@H]2C[C@@](C)(OC)[C@@H](O)[C@H](C)O2)[C@H](C)[C@@H](O[C@@H]2O[C@H](C)C[C@H](N(C)C)[C@H]2O)[C@](C)(O)C[C@@H](C)CN(C)[C@H](C)[C@@H](O)[C@]1(C)O [Azithromycin dehydrate (AZH), Azithromycin dehydrate] | 92 | 87 | 30 | – | – | – |
| CN(C)C(=O)COC(=O)Cc1ccc(OC(=O)c2ccc(NC(=N)N)cc2)cc1 [Camostat mesylate (CAM), Camostat mesylate] | 118 | 112 | 50 | – | – | – |
| CCN(CC)CCCC(C)Nc1ccnc2cc(Cl)ccc12 (stereo not shown) [Chloroquine diphosphate (CQ), Chloroquine diphosphate] | 103 | 105 | 5 | – | – | pEC50 (SARS-CoV-2): 5.68; EC90 (SARS-CoV-2): 3.8 µM; Cmax (maximum plasma concentration) [3]: 2.70 µg/mL; CC50 at 72 h ([4]; CC50% in µg/mL, Vero E6): 17 µg/mL; CC50 at 72 h ([4]; CC50%, Vero E6): 53.2 µM; CC50 at 72 h [4, 5]: 57.1 µM |
| CCN(CCO)CCCC(C)Nc1ccnc2cc(Cl)ccc12 (stereo not shown) [Hydroxychloroquine Minsa (HCQ-m), Hydroxychloroquine] | – | – | – | 72 | 84 | % viability Vero E6 (Vero-E6 cells; listed as HCQ-m): < 80% |
| CCN(CCO)CCCC(C)Nc1ccnc2cc(Cl)ccc12 (stereo not shown) [Hydroxychloroquine sulfate (HCQ), Hydroxychloroquine sulfate] | – | < 80 | – | 47 | 64 | % viability Vero E6 (Vero-E6 cells; listed as HCQ sulfate): < 80%; Cmax (maximum plasma concentration) [3]: 0.13 µg/mL; CC50 at 72 h ([4]; CC50% in µg/mL, Vero E6): 23.2 µg/mL; CC50 at 72 h ([4]; CC50%, Vero E6): 72.1 µM; CC50 at 72 h [4, 5]: 72.1 µM |
| O=C(Nc1cccc(C2=NCCN2)c1)Nc1cccc(C2=NCCN2)c1 [Imidocarb (IMI), Imidocarb] | 92 | 106 | – | – | – | – |
| CC[C@H](C)[C@H]1O[C@]2(CC[C@@H]1C)C[C@@H]1C[C@@H](C/C=C(\C)[C@@H](O[C@H]3C[C@H](OC)[C@@H](O[C@H]4C[C@H](OC)[C@@H](O)[C@H](C)O4)[C@H](C)O3)[C@@H](C)/C=C/C=C3\CO[C@@H]4[C@H](O)C(C)=C[C@@H](C(=O)O1)[C@]34O)O2 [Ivermectin (IVM), Ivermectin] | – | – | 8 | 93 | 87 | Cmax (maximum plasma concentration) [3]: 0.05 µg/mL; CC50 (Vero E6 cells): 74 µM; CC50% (Vero E6 cells): 64.8 µg/mL (≈ 74 µM) |
| CCCCN(CCCC)CC(O)c1cc(Cl)cc2c1-c1ccc(Cl)cc1/C2=C/c1ccc(Cl)cc1 (stereo not shown) [Lumefantrine (LUM), Lumefantrine] | 86 | 86 | 250 | – | – | – |
| OC(c1cc(C(F)(F)F)nc2c(C(F)(F)F)cccc12)C1CCCCN1 (stereo not shown) [Mefloquine (MQ), Mefloquine] | 105 | 82 | 30 | – | – | – |
| CN(C)c1ccc2nc3ccc(=[N+](C)C)cc-3sc2c1 [Methylene Blue Injection (MBi), Methylene Blue] | 84 | 89 | 5 | – | – | – |
| COc1c(C)c2c(c(O)c1C/C=C(\C)CCC(=O)O)C(=O)OC2 [Mycophenolic acid (MYC), Mycophenolic acid] | 107 | 109 | 5 | – | – | – |
| COc1cc(NC(C)CCCN)c2ncccc2c1 (stereo not shown) [Primaquine Phosphate (PQ), Primaquine Phosphate] | 106 | 87 | 15 | – | – | Cmax (maximum plasma concentration) [3]: 0.05 µg/mL; CC50 at 72 h ([4]; CC50% in µg/mL, Vero E6): 5.5 µg/mL; CC50 at 72 h ([4]; CC50%, Vero E6): 21.2 µM; CC50 at 72 h [4, 5]: 21.2 µM |
| CN1CCN(CCCN2c3ccccc3Sc3ccc(Cl)cc32)CC1 [Prochlorperazine (PCPZ), Prochlorperazine] | 80 | < 80 | 30 | – | 77 | – |
| COc1ccc2nc3cc(Cl)ccc3c(Nc3cc(CN4CCCC4)c(O)c(CN4CCCC4)c3)c2n1 [Pyranoridine (PNO), Pyranoridine] | – | – | 5 | 91 | 78 | % viability Calu-3 (Calu-3 cells; listed as PNO): < 80% |
| CCc1nc(N)nc(N)c1-c1ccc(Cl)cc1 [Pyrimethamina (PYR), Pyrimethamina] | 94 | 92 | 125 | – | – | – |
| C=C[C@H]1C[N@@]2CC[C@H]1C[C@H]2[C@H](O)c1ccnc2ccc(OC)cc12 [Quinine Sulfate (QN), Quinine Sulfate] | < 80 | 90 | 5 | 74 | – | – |
| NC(=O)c1ncn([C@@H]2O[C@H](CO)[C@@H](O)[C@H]2O)n1 [Ribavirin (RIB), Ribavirin] | 104 | 91 | 250 | – | – | – |
| Ferroquine [Ferroquine (FQ)] | – | – | 5 | 75 | 63 | % viability Vero E6 (Vero-E6 cells; listed as FQ): < 80% |
| Ivermectin [Ivermectin Farmacia (IVM-f)] | – | – | 75 | 101 | 67 | % viability Calu-3 (Calu-3 cells; listed as IVM-f): < 80% |
| Ivermectin [Ivermectin Liquida (IVM-li)] | – | – | 30 | 85 | 87 | – |

From paper PMC12175177 (Frontiers in Pharmacology, 2025)
